Reference: ChEMBL document CHEMBL5150076, “Discovery of Novel Orally Bioavailable Triazoles with Potent and Broad-Spectrum Antifungal Activity In Vitro and In Vivo” (J Med Chem, 2022)
In brackets after ≈: the same amount, converted by molar mass.

What was measured:
Candida albicans [1] = experiment: Antifungal activity against Candida albicans 28#; format: functional
[2] = target: T1, Lanosterol 14-alpha demethylase (Candida albicans (strain SC5314 / ATCC MYA-2876) (Yeast), UniProt P10613); experiment: Inhibition of CYP51 in Candida albicans SC5314 assessed as lanosterol level at 0.0625 ug/ml measured after 12 hrs by GC-MS analysis (reference value: 2.18%); set-up: scale not given: the % may be the effect or the level left; conditions: dose 0.0625 µg/ml
T1 sequence (P10613 whole entry): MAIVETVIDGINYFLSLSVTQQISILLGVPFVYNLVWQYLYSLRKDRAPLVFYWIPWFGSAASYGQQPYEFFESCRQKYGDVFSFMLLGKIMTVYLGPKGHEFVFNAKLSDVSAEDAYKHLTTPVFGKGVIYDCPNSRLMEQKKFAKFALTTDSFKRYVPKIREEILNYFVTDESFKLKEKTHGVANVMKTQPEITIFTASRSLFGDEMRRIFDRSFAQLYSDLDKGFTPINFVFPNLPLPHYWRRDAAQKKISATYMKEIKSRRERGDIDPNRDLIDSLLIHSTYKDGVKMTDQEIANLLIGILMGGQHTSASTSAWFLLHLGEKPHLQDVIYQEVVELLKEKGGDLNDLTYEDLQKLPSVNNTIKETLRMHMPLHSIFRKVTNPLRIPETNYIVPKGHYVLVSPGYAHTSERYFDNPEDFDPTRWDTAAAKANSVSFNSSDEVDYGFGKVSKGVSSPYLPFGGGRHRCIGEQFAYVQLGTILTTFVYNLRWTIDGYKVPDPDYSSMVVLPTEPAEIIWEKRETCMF

[Candida] auris = Antifungal activity against Candida auris BS12372; format: functional; conditions: Candidozyma auris
[3] = Cmax in Sprague-Dawley rat at 5 mg/kg, po by LC-MS analysis; format: ADME, organism-based; set-up: dose 5 mg/kg, route po; conditions: in vivo
Cryptococcus neoformans = experiment: Antifungal activity against Cryptococcus neoformans H99 infected in ICR mouse assessed as median survival time at 5 mg/kg, po qd infected with fungus for 2 hrs prior to compound addition for 7 days and measured for 20 days; format: functional; conditions: time 20 day
[4] = Cytotoxicity against HUVEC assessed as cell viability at 64 ug/ml incubated for 24 hrs by CCK-8 assay; format: toxicity, cell-based; conditions: human, HUVEC cells, dose 64 µg/ml, read-out: Activity
Candida parapsilosis [5] = experiment: Antifungal activity against Candida parapsilosis 700; format: functional; conditions: Lodderomyces parapsilosis
Nakaseomyces glabratus = experiment: Antifungal activity against Candida glabrata 537; format: functional
[6] = AUC(0 to infinity) in Sprague-Dawley rat at 2 mg/kg, iv by LC-MS analysis; format: ADME, organism-based; set-up: time infinity, dose 2 mg/kg, route iv; conditions: in vivo
[7] = target: T1, Lanosterol 14-alpha demethylase; experiment: Inhibition of CYP51 in Candida albicans SC5314 assessed as eburicol level at 0.0625 ug/ml measured after 12 hrs by GC-MS analysis (reference value: 0.00%); set-up: scale not given: the % may be the effect or the level left; conditions: dose 0.0625 µg/ml
Candida albicans [8] = experiment: Inhibition of biofilm formation in Candida albicans SC5314 at 0.5 ug/ml relative to control; format: functional
Candida parapsilosis [9] = experiment: Antifungal activity against Candida parapsilosis 660; format: functional; conditions: Lodderomyces parapsilosis
[10] = Tmax in Sprague-Dawley rat at 5 mg/kg, po by LC-MS analysis; format: ADME, organism-based; conditions: in vivo
Candida parapsilosis [11] = experiment: Antifungal activity against Candida parapsilosis 22019; format: functional; conditions: Lodderomyces parapsilosis
[12] = Induction of drug resistance in Candida albicans SC5314 assessed as increase in MIC after 26 days (reference value: 0.0313 microg/ml); format: functional; conditions: SC5314, 624 h, time 26 day
[13] = Induction of drug resistance in Candida albicans SC5314 assessed as increase in MIC after 2 weeks (reference value: 0.008 microg/ml); format: functional; conditions: SC5314, 336 h

C[C@@H](c1cn(-c2ccc(Cl)cc2F)nn1)[C@](O)(Cn1cncn1)c1ccc(F)cc1F
MIC (Candida albicans [1]): ≤ 0.0313 µg/mL | Activity [2]: 6.46% | MIC ([Candida] auris): 0.25 µg/mL (≈ 0.557 µM) | Cmax [3]: 837 ng/mL | Time (Cryptococcus neoformans): 18 days | viability at 24 h, 64 ug/ml [4]: 89.1% | MIC (Candida parapsilosis [5]): 0.0625 µg/mL (≈ 0.139 µM) | MIC (Nakaseomyces glabratus): 0.0625 µg/mL (≈ 0.139 µM) | AUC(0-inf) [6]: 8410 ng·h/mL | Activity [7]: 88.96% | inhibition at 0.5 µg/mL (Candida albicans [8]): 80% | MIC (Candida parapsilosis [9]): ≤ 0.0313 µg/mL | Tmax [10]: 2.71 h | MIC (Candida parapsilosis [11]): 0.0625 µg/mL (≈ 0.139 µM) | MIC [12]: 0.125 µg/mL | MIC [13]: 0.313 µg/mL
